Laboratory results taken from patent US10787452B2 (Vertex Pharmaceuticals Incorporated, priority 2012, dated 2020).

system: HCT116 colorectal cancer cells; experiment: Cisplatin sensitization assay (96 h cell viability MTS); type: cell-based; conditions: 96 h MTS, compound plus Cisplatin;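 further: compound concentration needed to lower the Cisplatin-alone IC50 by a set fold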
Outline: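 Viability is measured with MTS reagent, added after 96 h and developed for 1 h at 37° C. Beforehand, cells receive compound and cisplatin simultaneously in a concentration matrix of 2-fold serial dilutions starting at 10 μM final.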

SMILES	Cisplatin Sensitization Assay
Nc1nn2cc(F)cnc2c1C(=O)Nc1cnccc1N1CCC(S(=O)(=O)C2COC2)CC1 [I-N-200, 2-amino-6-fluoro-N-(4-(4-(oxetan-3-ylsulfonyl)piperidin-1-yl)pyridin-3-yl)pyrazolo[1,5-a]pyrimidine-3-carboxamide]	+++ (Compounds with a Cisplatin sensitization value of <0.02 μM are marked with “+++.”)
CN1CCC(N(C)S(=O)(=O)C2CCN(c3c(F)cncc3NC(=O)c3c(N)nn4cc(F)cnc34)CC2)CC1 [I-N-148, 2-amino-6-fluoro-N-(5-fluoro-4-(4-(N-methyl-N-(1-methylpiperidin-4-yl)sulfamoyl)piperidin-1-yl)pyridin-3-yl)pyrazolo[1,5-a]pyrimidine-3-carboxamide]	+++ (Compounds with a Cisplatin sensitization value of <0.02 μM are marked with “+++.”)
CN1CCOC(C(=O)N2CCN(c3c(F)cncc3NC(=O)c3c(N)nn4cc(F)cnc34)CC2)C1 (centres unmarked) [I-N-174, 2-amino-6-fluoro-N-(5-fluoro-4-(4-(4-methylmorpholine-2-carbonyl)piperazin-1-yl)pyridin-3-yl)pyrazolo[1,5-a]pyrimidine-3-carboxamide]	+++ (Compounds with a Cisplatin sensitization value of <0.02 μM are marked with “+++.”)
Nc1nn2cc(F)cnc2c1C(=O)Nc1cnccc1C1CCN(C2COC2)CC1 [I-C-10, 2-amino-6-fluoro-N-(4-(1-(oxetan-3-yl)piperidin-4-yl)pyridin-3-yl)pyrazolo[1,5-a]pyrimidine-3-carboxamide]	+++ (Compounds with a Cisplatin sensitization value of <0.02 μM are marked with “+++.”)
COC(=O)[C@H]1CC[C@H](Oc2ccncc2NC(=O)c2c(N)nn3cc(F)cnc23)CC1 [I-O-13, (1r,4r)-methyl 4-((3-(2-amino-6-fluoropyrazolo[1,5-a]pyrimidine-3-carboxamido)pyridin-4-yl)oxy)cyclohexanecarboxylate]	+++ (Compounds with a Cisplatin sensitization value of <0.02 μM are marked with “+++.”)
CN1CCC(C(=O)N2CC=C(c3c(F)cncc3NC(=O)c3c(N)nn4cc(F)cnc34)CC2)CC1 [I-C-38, 2-amino-6-fluoro-N-(5-fluoro-1′-(1-methylpiperidine-4-carbonyl)-1′,2′,3′,6′-tetrahydro-[4,4′-bipyridin]-3-yl)pyrazolo[1,5-a]pyrimidine-3-carboxamide]	++ (Compounds with a Cisplatin sensitization value >0.02 μM but <0.2 μM are marked with “++.”)
Cc1nonc1N1CCN(c2ccncc2NC(=O)c2c(N)nn3cc(F)cnc23)CC1 [I-N-260, 2-amino-6-fluoro-N-(4-(4-(4-methyl-1,2,5-oxadiazol-3-yl)piperazin-1-yl)pyridin-3-yl)pyrazolo[1,5-a]pyrimidine-3-carboxamide]	+++ (Compounds with a Cisplatin sensitization value of <0.02 μM are marked with “+++.”)
C[C@H]1CN(C2COC2)CCN1c1ccncc1NC(=O)c1c(N)nn2cc(F)cnc12 [I-N-24, (S)-2-amino-6-fluoro-N-(4-(2-methyl-4-(oxetan-3-yl)piperazin-1-yl)pyridin-3-yl)pyrazolo[1,5-a]pyrimidine-3-carboxamide]	+++ (Compounds with a Cisplatin sensitization value of <0.02 μM are marked with “+++.”)
Nc1nn2cc(F)cnc2c1C(=O)Nc1cnccc1OC1COC1 [I-O-92, 2-amino-6-fluoro-N-(4-(oxetan-3-yloxy)pyridin-3-yl)pyrazolo[1,5-a]pyrimidine-3-carboxamide]	+++ (Compounds with a Cisplatin sensitization value of <0.02 μM are marked with “+++.”)
CN(C)C1CCCN(c2ccncc2NC(=O)c2c(N)nn3cc(Cl)cnc23)C1 (centres unmarked) [I-N-40, 2-amino-6-chloro-N-(4-(3-(dimethylamino)piperidin-1-yl)pyridin-3-yl)pyrazolo[1,5-a]pyrimidine-3-carboxamide]	++ (Compounds with a Cisplatin sensitization value >0.02 μM but <0.2 μM are marked with “++.”)
Nc1nn2cc(F)cnc2c1C(=O)Nc1cncc(F)c1N1CCN2C(=O)CC[C@@H]2C1 [I-N-186, (R)-2-amino-6-fluoro-N-(5-fluoro-4-(6-oxohexahydropyrrolo[1,2-a]pyrazin-2(1H)-yl)pyridin-3-yl)pyrazolo[1,5-a]pyrimidine-3-carboxamide]	+++ (Compounds with a Cisplatin sensitization value of <0.02 μM are marked with “+++.”)
CN1CCC(c2c(F)cncc2NC(=O)c2c(N)nn3cc(F)cnc23)CC1 [I-C-14, 2-amino-6-fluoro-N-(5-fluoro-4-(1-methylpiperidin-4-yl)pyridin-3-yl)pyrazolo[1,5-a]pyrimidine-3-carboxamide]	+ (Compounds with a Cisplatin sensitization value >0.2 μM but <5 μM are marked with “+.”)
N#CC1CN(C(=O)C2CCN(c3ccncc3NC(=O)c3c(N)nn4cc(F)cnc34)CC2)C1 [I-G-81, 2-amino-N-(4-(4-(3-cyanoazetidine-1-carbonyl)piperidin-1-yl)pyridin-3-yl)-6-fluoropyrazolo[1,5-a]pyrimidine-3-carboxamide]	+++ (Compounds with a Cisplatin sensitization value of <0.02 μM are marked with “+++.”)
Nc1nn2cc(F)cnc2c1C(=O)Nc1cnccc1O[C@@H]1CN2CCC1CC2 [I-O-10, (S)-2-amino-6-fluoro-N-(4-(quinuclidin-3-yloxy)pyridin-3-yl)pyrazolo[1,5-a]pyrimidine-3-carboxamide]	+++ (Compounds with a Cisplatin sensitization value of <0.02 μM are marked with “+++.”)
Nc1nn2cc(Cl)cnc2c1C(=O)Nc1cncc(F)c1N1CCN(C2COC2)CC1 [I-N-117, 2-amino-6-chloro-N-(5-fluoro-4-(4-(oxetan-3-yl)piperazin-1-yl)pyridin-3-yl)pyrazolo[1,5-a]pyrimidine-3-carboxamide]	+++ (Compounds with a Cisplatin sensitization value of <0.02 μM are marked with “+++.”)
Cc1ncn(-c2ccncc2NC(=O)c2c(N)nn3cc(F)cnc23)c1C [I-N-269, 2-amino-N-(4-(4,5-dimethyl-1H-imidazol-1-yl)pyridin-3-yl)-6-fluoropyrazolo[1,5-a]pyrimidine-3-carboxamide]	++ (Compounds with a Cisplatin sensitization value >0.02 μM but <0.2 μM are marked with “++.”)
Cc1cc(C(=O)N2CCN(C)CC2)ccc1-c1ccncc1NC(=O)c1c(N)nn2cc(F)cnc12 [I-C-45, 2-amino-6-fluoro-N-(4-(2-methyl-4-(4-methylpiperazine-1-carbonyl)phenyl)pyridin-3-yl)pyrazolo[1,5-a]pyrimidine-3-carboxamide]	+++ (Compounds with a Cisplatin sensitization value of <0.02 μM are marked with “+++.”)
N#C[C@@H]1CCN(c2c(Cl)cncc2NC(=O)c2c(N)nn3cc(F)cnc23)C1 [I-N-285, (R)-2-amino-N-(5-chloro-4-(3-cyanopyrrolidin-1-yl)pyridin-3-yl)-6-fluoropyrazolo[1,5-a]pyrimidine-3-carboxamide]	++ (Compounds with a Cisplatin sensitization value >0.02 μM but <0.2 μM are marked with “++.”)
CN1CCC(C(=O)N2CCN(c3c(F)cncc3NC(=O)c3c(N)nn4cc(F)cnc34)CC2)C1 (centres unmarked) [I-N-156, 2-amino-6-fluoro-N-(5-fluoro-4-(4-(1-methylpyrrolidine-3-carbonyl)piperazin-1-yl)pyridin-3-yl)pyrazolo[1,5-a]pyrimidine-3-carboxamide]	+++ (Compounds with a Cisplatin sensitization value of <0.02 μM are marked with “+++.”)
CN(C)CCOc1cc(Cl)ncc1NC(=O)c1c(N)nn2cc(Cl)cnc12 [I-O-68, 2-amino-6-chloro-N-(6-chloro-4-(2-(dimethylamino)ethoxy)pyridin-3-yl)pyrazolo[1,5-a]pyrimidine-3-carboxamide]	++ (Compounds with a Cisplatin sensitization value >0.02 μM but <0.2 μM are marked with “++.”)
Cn1cc(-c2ccncc2NC(=O)c2c(N)nn3cc(F)cnc23)ccc1=O [I-C-59, 2-amino-6-fluoro-N-(1-methyl-6-oxo-1,6-dihydro-[3,4′-bipyridin]-3′-yl)pyrazolo[1,5-a]pyrimidine-3-carboxamide]	++ (Compounds with a Cisplatin sensitization value >0.02 μM but <0.2 μM are marked with “++.”)
CC(=O)N1CCCC12CCN(c1ccncc1NC(=O)c1c(N)nn3cc(F)cnc13)CC2 [I-N-262, N-(4-(1-acetyl-1,8-diazaspiro[4.5]decan-8-yl)pyridin-3-yl)-2-amino-6-fluoropyrazolo[1,5-a]pyrimidine-3-carboxamide]	+++ (Compounds with a Cisplatin sensitization value of <0.02 μM are marked with “+++.”)
Cc1nc(C(F)(F)F)cn1-c1ccncc1NC(=O)c1c(N)nn2cc(F)cnc12 [I-N-30, 2-amino-6-fluoro-N-(4-(2-methyl-4-(trifluoromethyl)-1H-imidazol-1-yl)pyridin-3-yl)pyrazolo[1,5-a]pyrimidine-3-carboxamide]	++ (Compounds with a Cisplatin sensitization value >0.02 μM but <0.2 μM are marked with “++.”)
CN1CCC(Oc2ccncc2NC(=O)c2c(N)nn3cc(CC#N)cnc23)CC1 [I-O-23, 2-amino-6-(cyanomethyl)-N-(4-((1-methylpiperidin-4-yl)oxy)pyridin-3-yl)pyrazolo[1,5-a]pyrimidine-3-carboxamide]	+++ (Compounds with a Cisplatin sensitization value of <0.02 μM are marked with “+++.”)
Nc1nn2cc(Cl)cnc2c1C(=O)Nc1cnccc1N1CCN(C2COC2)CC1 [I-N-58, 2-amino-6-chloro-N-(4-(4-(oxetan-3-yl)piperazin-1-yl)pyridin-3-yl)pyrazolo[1,5-a]pyrimidine-3-carboxamide]	++ (Compounds with a Cisplatin sensitization value >0.02 μM but <0.2 μM are marked with “++.”)
Nc1nn2cc(F)cnc2c1C(=O)Nc1cnccc1N1CCC(C(=O)N2CCCC2)CC1 [I-G-83, 2-amino-6-fluoro-N-(4-(4-(pyrrolidine-1-carbonyl)piperidin-1-yl)pyridin-3-yl)pyrazolo[1,5-a]pyrimidine-3-carboxamide]	+++ (Compounds with a Cisplatin sensitization value of <0.02 μM are marked with “+++.”)
